The record followed here is ChEMBL document CHEMBL1140474, “Enhancement of oral drug absorption-effect of lipid conjugation on the enzymatic stability and intestinal permeability of l-Glu-l-Trp-NH(2)” (Bioorg Med Chem, 2007).

Structures are written as SMILES. Where a SMILES comes first, the peptide text is derived from it. [ ]: non-standard residue; d: D form. ξ: configuration not given here. ξGly(dodecyl) = CCCCCCCCCCCCC(N)C(=O)O; ξGly(decyl) = CCCCCCCCCCC(N)C(=O)O; ξGly(octyl) = CCCCCCCCC(N)C(=O)O; ξAoc(2) = CCCCCCC(N)C(=O)O

Series [1] in a line: Apparent permeability across human Caco-2 cells. It counts as ADME, cell-based.
Series [2] can be described thus: Stability in human Caco-2 homogenates after 2 hrs. The series is classed as ADME. As to conditions: Caco-2 cell homogenates, read-out: Stability; call rule not given here.
Series [3] in a line: Stability in human Caco-2 homogenates after 1 hr. The series is classed as ADME. The note with it: Caco-2 cell homogenates, read-out: Stability.
The test system of series [4] is Caco-2. As to the kind of experiment: Stability in human Caco-2 homogenates after 10 mins. The series is classed as ADME. As to conditions: caco-2, 10 min.
The subject of series [5] is Caco-2. As to the kind of experiment: Stability in human Caco-2 homogenates after 20 mins. It counts as ADME. The note with it: caco-2, 20 min.

Regarding `CCCCCCCCCCC(NC(=O)[C@@H](N)CCC(=O)O)C(=O)N[C@@H](Cc1c[nH]c2ccccc12)C(N)=O` (some centres not stated), the Papp in series [1] is 4.66 ×10⁻⁶ cm/s. Moreover, the remaining at 2 h in series [2] was 40%.

Take `CCCCCCCCC(N)C(=O)N[C@@H](CCC(=O)O)C(=O)N[C@@H](Cc1c[nH]c2ccccc12)C(N)=O` (some centres not stated): the Papp in series [1] amounted to 1.55 ×10⁻⁶ cm/s. For the same compound, the remaining at 2 h in series [2] came to 40%.

As for `CCCCCCCCCCC(N)C(=O)N[C@@H](CCC(=O)O)C(=O)N[C@@H](Cc1c[nH]c2ccccc12)C(N)=O` (some centres not stated), the remaining at 1 h in series [3] came to 75%. Also, the Papp in series [1] worked out at 9.26 ×10⁻⁶ cm/s. Also, the remaining at 2 h in series [2] came out at 65%.

As for `CCCCCCCCCCCCC(N)C(=O)N[C@@H](CCC(=O)O)C(=O)N[C@@H](Cc1c[nH]c2ccccc12)C(N)=O` (some centres not stated), in series [3], the remaining at 1 h turned out to be 75%. The apparent permeability (Papp) in series [1] came to 1.02 ×10⁻⁶ cm/s. Besides, the remaining at 2 h in series [2] stood at 65%.

`CCCCCCCCC(NC(=O)[C@@H](N)CCC(=O)O)C(=O)N[C@@H](Cc1c[nH]c2ccccc12)C(N)=O` (some centres not stated): in the series on Caco-2 [4], the Stability was 15%. Moreover, the Papp in series [1] came to 3.99 ×10⁻⁶ cm/s. The remaining at 2 h in series [2] was 40%.

With `NC(=O)[C@H](Cc1c[nH]c2ccccc12)NC(=O)[C@@H](N)CCC(=O)O` (H-Glu-Trp-NH2), in series [1], the Papp was 7.76 ×10⁻⁶ cm/s. The remaining at 2 h in series [2] was 35%.

Take `CCCCCCC(NC(=O)[C@@H](N)CCC(=O)O)C(=O)N[C@@H](Cc1c[nH]c2ccccc12)C(N)=O` (some centres not stated) (H-Glu-[ξAoc(2)]-Trp-NH2): the apparent permeability coefficient (Papp) in series [1] is 3.83 ×10⁻⁶ cm/s. In series [2], the remaining at 2 h is 40%.

As to `CCCCCCC(N)C(=O)N[C@@H](CCC(=O)O)C(=O)N[C@@H](Cc1c[nH]c2ccccc12)C(N)=O` (stereo partly drawn) (H-[ξAoc(2)]-Glu-Trp-NH2), the Papp in series [1] was 4.84 ×10⁻⁶ cm/s. Also, in series [2], the remaining at 2 h is 40%.

For `CCCCCCC(N)C(=O)NC(CCCCCC)C(=O)N[C@@H](CCC(=O)O)C(=O)N[C@@H](Cc1c[nH]c2ccccc12)C(N)=O` (some centres not stated) (H-[ξAoc(2)][ξAoc(2)]EW-NH2), the Activity result in the series on Caco-2 [5] is “Not Active”. Moreover, in series [1], the Papp stood at 8.32 ×10⁻⁶ cm/s. Also, the remaining at 2 h in series [2] was determined as 90%.

In the case of `CCCCCCCCCCC(N)C(=O)NC(CCCCCCCCCC)C(=O)N[C@@H](CCC(=O)O)C(=O)N[C@@H](Cc1c[nH]c2ccccc12)C(N)=O` (some centres not stated) (H-[ξGly(decyl)][ξGly(decyl)]EW-NH2), the Activity result in the series on Caco-2 [5] is recorded as “Not Active”. Further, the apparent permeability coefficient (Papp) in series [1] was determined as 3.09 ×10⁻⁶ cm/s. Further, the remaining at 2 h in series [2] came out at 90%.

Turning to `CCCCCCCCCCCCC(N)C(=O)NC(CCCCCCCCCCCC)C(=O)N[C@@H](CCC(=O)O)C(=O)N[C@@H](Cc1c[nH]c2ccccc12)C(N)=O` (some centres not stated) (H-[ξGly(dodecyl)][ξGly(dodecyl)]EW-NH2), the Activity result with Caco-2 [5] is given as “Not Active”. In addition, the Papp in series [1] was found to be 2.77 ×10⁻⁶ cm/s. In series [2], the remaining at 2 h came to 90%.

With `CCCCCCCCC(N)C(=O)NC(CCCCCCCC)C(=O)N[C@@H](CCC(=O)O)C(=O)N[C@@H](Cc1c[nH]c2ccccc12)C(N)=O` (some centres not stated) (H-[ξGly(octyl)][ξGly(octyl)]EW-NH2), in the series on Caco-2 [5], the Activity entry was “Not Active”. The Stability with Caco-2 [4] turned out to be 15%. Also, the Papp in series [1] stood at 1.79 ×10⁻⁶ cm/s. Moreover, in series [2], the remaining at 2 h was found to be 40%.
